Measured values from patent US20230132366A9, “METHODS FOR TREATING DYSREGULATED LIPID METABOLISM” (DENALI THERAPEUTICS INC., priority 2018, published 2023).

Tested on: Trem2 KO BMDMs
Assay: In vitro lipid storage assay, Nile Red staining, BMDM treated with myelin
Assay type: cell-based, mouse
Method: Mouse femur and tibia bones were dissected and briefly sterilized with 70% ethanol. The bones were washed twice with HBSS, then cracked in 10 mL HBSS by mortar and pestle. The cell suspension was filtered through a 70 μm cell strainer, spun at 300×g for 5 min, and supernatant was discarded. The cell pellet was resuspended in ACK Lysing Buffer (Thermo Fisher A1049201) for 4 min at room temperature. 10 mL RPMI-1640 (Thermo Fisher)+10% Hyclone FBS (GE Healthcare)+ Penicillin-Streptomycin (Thermo Fisher) was added to stop ACK lysis, then spun 300×g 5 min, and supernatant was discarded. Cells were resuspended in RPMI culture media with 50 ng/mL murine M-CSF (Life Technologies, PMC2044), counted and diluted to 1×10^6 cells/mL, then plated on non-tissue culture treated petri dishes. Three days after seeding, fresh murine M-CSF (50 ng/mL) was added. Five days after seeding, cell culture media was aspirated and cells were washed once with PBS. Cells were resuspended in RPMI/FBS/Pen-Strep and harvested with a cell scraper. […]
For LC-MS, cells were extracted according to the protocol below. […] Lipid and filipin spots were analyzed using a spot-finding algorithm on the Harmony software supplied with the instrument. […] Cells were imaged at 63× resolution and Nile Red was quantified as total spot area (FIG. 5B) using a spot-finding algorithm on the Harmony software. […]

Molecule | neutral lipid accumulation (Nile Red) (myelin debris 25 ug/mL 48 h, co-treatment 10 uM) | neutral lipid accumulation (Nile Red, total spot area) (myelin 25 ug/mL 24 h, then APOE3 10 ug/mL 24 h)
C=C(c1ccc(C(=O)O)cc1)c1cc2c(cc1C)C(C)(C)CCC2(C)C [bexarotene] | reduced | 
APOE3: recombinant human APOE3 added into the culture media |  | improved
